Reference: patent US12091426B2, “Bifunctional degraders of hematopoietic progenitor kinase and therapeutic uses thereof” (Nurix Therapeutics, Inc., priority 2021, dated 2024)

Biological target: T1, HPK1 (Homo sapiens, UniProt Q92918)
T1 construct: A HiBiT tag was introduced by CRISPR on the N terminus of HPK1 in Jurkat cells; host or cells: Jurkat cells (ATCC TIB-152), monoclonal line with CRISPR knock-in of HiBiT at the endogenous HPK1 locus
Assay: HPK1 Cellular HiBit Degradation Assay
Type: cell-based
Details: HiBiT HPK1 Jurkat cells, 24 hrs; for DC50: concentration at which 50% of HPK1 was remaining, read-out: DC50 Category; for Dmax: Jurkat, maximum degradation vs DMSO vehicle control, read-out: Dmax Category
Summary of the method: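 Jurkat cells with CRISPR N-terminal HiBiT-tagged endogenous HPK1 treated 24 h at 37 °C with 11-point, 3.16-fold dilutions (10 uM to 0.1 nM final). HiBiT lytic luminescence gives % HPK1 remaining versus DMSO, with parental cells as background. Four-parameter fit yields DC50; Dmax = 100 minus lowest % remaining.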

T1 sequence (Q92918 whole entry): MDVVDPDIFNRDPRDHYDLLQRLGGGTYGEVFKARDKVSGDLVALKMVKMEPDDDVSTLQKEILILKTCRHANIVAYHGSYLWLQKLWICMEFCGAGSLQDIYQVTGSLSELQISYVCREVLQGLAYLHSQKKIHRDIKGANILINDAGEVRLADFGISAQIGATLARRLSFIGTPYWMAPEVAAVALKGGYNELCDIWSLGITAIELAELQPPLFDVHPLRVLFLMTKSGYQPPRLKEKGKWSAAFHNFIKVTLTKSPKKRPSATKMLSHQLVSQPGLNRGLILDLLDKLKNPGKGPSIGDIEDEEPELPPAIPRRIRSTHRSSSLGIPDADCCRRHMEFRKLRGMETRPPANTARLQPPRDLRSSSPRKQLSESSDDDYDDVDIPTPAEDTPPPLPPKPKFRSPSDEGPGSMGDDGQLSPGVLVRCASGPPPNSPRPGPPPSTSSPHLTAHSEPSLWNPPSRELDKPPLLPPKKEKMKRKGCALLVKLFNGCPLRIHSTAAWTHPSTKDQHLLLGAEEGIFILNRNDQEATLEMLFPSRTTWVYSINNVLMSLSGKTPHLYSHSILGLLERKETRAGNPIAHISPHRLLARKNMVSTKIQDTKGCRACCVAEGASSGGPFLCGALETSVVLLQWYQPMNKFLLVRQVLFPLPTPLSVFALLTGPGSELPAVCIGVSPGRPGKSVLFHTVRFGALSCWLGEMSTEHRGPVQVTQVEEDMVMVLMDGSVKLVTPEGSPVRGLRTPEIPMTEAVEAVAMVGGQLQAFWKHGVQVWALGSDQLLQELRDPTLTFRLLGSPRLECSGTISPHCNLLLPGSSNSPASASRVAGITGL

Row | SMILES | DC50 [nM] | Dmax [%]
1 | CC(C)n1cnc2cc(-c3ccc4c(c3)N([C@H]3C[C@@H](N5CCCCC5)C3)C(=O)C43CCN(C(=O)C4(C)CCN(C(=O)C5CCN(c6ccc(N7CCC(=O)NC7=O)cn6)CC5)CC4)CC3)nc(NC3CC3)c21 [Example 115, 1-(6-{4-[4-({6-[4-(cyclopropylamino)-3-(propan-2-yl)-3H-imidazo[4,5-c]pyridin-6-yl]-2-oxo-1-[(1S,3S)-3-(piperidin-1-yl)cyclobutyl]-1,2-dihydrospiro[indole-3,4′-piperidin]-1′-yl}carbonyl)-4-methylpiperidine-1-carbonyl]piperidin-1-yl}pyridin-3-yl)-1,3-diazinane-2,4-dione] | < 100 | 70 to 85
2 | CC(C)n1cnc2cc(-c3ccc4c(c3)N([C@H]3C[C@@H](N5CCCCC5)C3)C(=O)C43CCN(C(=O)C4CCN(C(=O)[C@H]5CC[C@H](Oc6ccc(C7CCC(=O)NC7=O)cc6)CC5)CC4)CC3)nc(Nc3ccncc3F)c21 (mixture of isomers) [Example 61, (3RS)-3-(4-{[(1R,4R)-4-{4-[(6-{4-[(3-fluoropyridin-4-yl)amino]-3-(propan-2-yl)-3H-imidazo[4,5-c]pyridin-6-yl}-2-oxo-1-[(1S,3S)-3-(piperidin-1-yl)cyclobutyl]-1,2-dihydrospiro[indole-3,4′-piperidin]-1′-yl)carbonyl]piperidine-1-carbonyl}cyclohexyl]oxy}phenyl)piperidine-2,6-dione] | < 100 | 50 to 70
3 | CC(C)n1cnc2cc(-c3ccc4c(c3)N([C@H]3C[C@@H](N5CCCCC5)C3)C(=O)C43CCN(C(=O)C4CCC5(CC4)CCN(C(=O)C4CCN(c6ccc(C7CCC(=O)NC7=O)cn6)CC4)CC5)CC3)nc(NC3CC3)c21 (mixture of isomers) [Example 295, (3RS)-3-(6-{4-[9-({6-[4-(cyclopropylamino)-3-(propan-2-yl)-3H-imidazo[4,5-c]pyridin-6-yl]-2-oxo-1-[(1S,3S)-3-(piperidin-1-yl)cyclobutyl]-1,2-dihydrospiro[indole-3,4′-piperidin]-1′-yl}carbonyl)-3-azaspiro[5.5]undecane-3-carbonyl]piperidin-1-yl}pyridin-3-yl)piperidine-2,6-dione] | 100 to 500 | 70 to 85
4 | CC(C)n1cnc2cc(-c3ccc4c(c3)N([C@H]3C[C@@H](N5CCCCC5)C3)C(=O)C43CCN(C(=O)C4CCN(C(=O)[C@H]5CC[C@H](Nc6ccc(C7CCC(=O)NC7=O)cc6)CC5)CC4)CC3)nc(Nc3ccncc3F)c21 (mixture of isomers) [Example 55, (3RS)-3-(4-{[(1R,4R)-4-{4-[(6-{4-[(3-Fluoropyridin-4-yl)amino]-3-(propan-2-yl)-3H-imidazo[4,5-c]pyridin-6-yl}-2-oxo-1-[(1S,3S)-3-(piperidin-1-yl)cyclobutyl]-1,2-dihydrospiro[indole-3,4′-piperidin]-1′-yl)carbonyl]piperidine-1-carbonyl}cyclohexyl]amino}phenyl)piperidine-2,6-dione] | 100 to 500 | 50 to 70
5 | CC(C)n1cnc2cc(-c3ccc4c(c3)N(C3CC(N5CCCCC5)C3)C(=O)C43CCN(CC(=O)N4CCN(C(=O)C5CCN(c6ccc(C7CCC(=O)NC7=O)cn6)CC5)CC4)CC3)nc(NC3CC3)c21 (centres unmarked) [Example 183, 3-(6-{4-[4-(2-{6-[4-(cyclopropylamino)-3-(propan-2-yl)-3H-imidazo[4,5-c]pyridin-6-yl]-2-oxo-1-[3-(piperidin-1-yl)cyclobutyl]-1,2-dihydrospiro[indole-3,4′-piperidine]-1′-yl}Acetyl)piperazine-1-carbonyl]piperidin-1-yl}pyridin-3-yl)piperidine-2,6-dione] | < 100 | > 85
6 | CC(C)n1cnc2cc(-c3ccc4c(c3)N([C@H]3C[C@@H](N5C6CCC5COC6)C3)C(=O)C43CCN(C(=O)C4(C)CCN(C(=O)C5CCN(c6ccc(C7CCC(=O)NC7=O)cn6)CC5)CC4)CC3)nc(NC3CC3)c21 (mixture of isomers) [Example 215, (3RS)-3-(6-{4-[4-({6-[4-(cyclopropylamino)-3-(propan-2-yl)-3H-imidazo[4,5-c]pyridin-6-yl]-2-oxo-1-[(1S,3S)-3-{3-oxa-8-azabicyclo[3.2.1]octan-8-yl}cyclobutyl]-1,2-dihydrospiro[indole-3,4′-piperidin]-1′-yl}carbonyl)-4-methylpiperidine-1-carbonyl]piperidin-1-yl}pyridin-3-yl)piperidine-2,6-dione] | < 100 | 70 to 85
7 | CC(C)n1cnc2cc(-c3ccc4c(c3)N([C@H]3C[C@@H](N5CCCCC5)C3)C(=O)C43CCN(C(=O)C4(C)CCN(C(=O)C5CCN(c6ccc(C7CCC(=O)NC7=O)nc6)CC5)CC4)CC3)nc(NC3CC3)c21 (mixture of isomers) [Example 118, (3RS)-3-(5-{4-[4-({6-[4-(cyclopropylamino)-3-(propan-2-yl)-3H-imidazo[4,5-c]pyridin-6-yl]-2-oxo-1-[(1S,3S)-3-(piperidin-1-yl)cyclobutyl]-1,2-dihydrospiro[indole-3,4′-piperidin]-1′-yl}carbonyl)-4-methylpiperidine-1-carbonyl]piperidin-1-yl}pyridin-2-yl)piperidine-2,6-dione] | < 100 | 50 to 70
8 | CC(C)n1cnc2cc(-c3ccc4c(c3)N([C@H]3C[C@@H](N5CCCCC5)C3)C(=O)C43CCN(C(=O)C4(C)CCN(C(=O)C5CCN(c6ccc(C7CCC(=O)NC7=O)nn6)CC5)CC4)CC3)nc(NC3CC3)c21 (mixture of isomers) [Example 209, (3RS)-3-(6-{4-[4-({6-[4-(cyclopropylamino)-3-(propan-2-yl)-3H-imidazo[4,5-c]pyridin-6-yl]-2-oxo-1-[(1S,3S)-3-(piperidin-1-yl)cyclobutyl]-1,2-dihydrospiro[indole-3,4′-piperidin]-1′-yl}carbonyl)-4-methylpiperidine-1-carbonyl]piperidin-1-yl}pyridazin-3-yl)piperidine-2,6-dione] | < 100 | 70 to 85
9 | CC(C)n1cnc2cc(-c3ccc4c(c3)N([C@H]3C[C@@H](N5CCCCC5)C3)C(=O)C43CCN(C(=O)C4CN(C(=O)C5CCN(c6ccc(C7CCC(=O)NC7=O)cc6)CC5)CC(F)(F)C4)CC3)nc(NC3CC3)c21 (mixture of isomers) [Example 268, (3RS)-3-(4-{4-[5-({6-[4-(cyclopropylamino)-3-(propan-2-yl)-3H-imidazo[4,5-c]pyridin-6-yl]-2-oxo-1-[(1S,3S)-3-(piperidin-1-yl)cyclobutyl]-1,2-dihydrospiro[indole-3,4′-piperidin]-1′-yl}carbonyl)-3,3-Difluoropiperidine-1-carbonyl]piperidin-1-yl}phenyl)piperidine-2,6-dione] | 100 to 500 | 50 to 70

Next, values leading:

Row | DC50 [nM] | Dmax [%] | SMILES
10 | < 100 | 50 to 70 | CC(C)n1cnc2cc(-c3ccc4c(c3)N([C@H]3C[C@@H](N5CCCCC5)C3)C(=O)C43CCN(C(=O)C4CCN(C(=O)[C@H]5CC[C@H](Cn6cc7cc(C8CCC(=O)NC8=O)ccc7n6)CC5)CC4)CC3)nc(Nc3ccccc3F)c21 (mixture of isomers) [Example 63, (3RS)-3-(2-{[(1R,4R)-4-{4-[(6-{4-[(2-fluorophenyl)amino]-3-(propan-2-yl)-3H-imidazo[4,5-c]pyridin-6-yl}-2-oxo-1-[(1S,3S)-3-(piperidin-1-yl)cyclobutyl]-1,2-dihydrospiro[indole-3,4′-piperidin]-1′-yl)carbonyl]piperidine-1-carbonyl}cyclohexyl]methyl}-2H-indazol-5-yl)piperidine-2,6-dione]
11 | 500 to 1000 | 50 to 70 | Cc1cc(C(=O)N2CCC3(CC2)C(=O)N([C@H]2C[C@@H](N4CCCCC4)C2)c2cc(-c4cc5ncn(C(C)C)c5c(Nc5ccccc5F)n4)ccc23)ccc1C(=O)N1CCN(c2ccc3c(c2)C(=O)N(C2CCC(=O)NC2=O)C3=O)CC1 (mixture of isomers) [Example 125, 2-[(3RS)-2,6-dioxopiperidin-3-yl]-5-(4-{4-[(6-{4-[(2-fluorophenyl)amino]-3-(propan-2-yl)-3H-imidazo[4,5-c]pyridin-6-yl}-2-oxo-1-[(1S,3S)-3-(piperidin-1-yl)cyclobutyl]-1,2-dihydrospiro[indole-3,4′-piperidin]-1′-yl)carbonyl]-2-methylbenzoyl}piperazin-1-yl)-2,3-dihydro-1H-isoindole-1,3-dione]
12 | 100 to 500 | 70 to 85 | CC(C)n1cnc2cc(-c3ccc4c(c3)N([C@H]3C[C@@H](N5CCCCC5)C3)C(=O)C43CCN(C(=O)C4(C)CCN(C(=O)C5CCN(c6ccc7c(c6)C(=O)N(C6CCC(=O)NC6=O)C7=O)CC5)CC4)CC3)nc(Nc3ccccc3F)c21 (stereo partly drawn) [Example 122, 2-(2,6-dioxopiperidin-3-yl)-5-(4-{4-[(6-{4-[(2-fluorophenyl)amino]-3-(propan-2-yl)-3H-imidazo[4,5-c]pyridin-6-yl}-2-oxo-1-[(1S,3S)-3-(piperidin-1-yl)cyclobutyl]-1,2-dihydrospiro[indole-3,4′-piperidin]-1′-yl)carbonyl]-4-methylpiperidine-1-carbonyl}piperidin-1-yl)-2,3-dihydro-1H-isoindole-1,3-dione]
13 | < 100 | 70 to 85 | CC(C)n1cnc2cc(-c3ccc4c(c3)N([C@H]3C[C@@H](N5CCCCC5)C3)C(=O)C43CCN(C(=O)C4CCN(C(=O)CN5CCN(c6ccc(C7CCC(=O)NC7=O)cn6)CC5)CC4)CC3)nc(Nc3ccccc3F)c21 (mixture of isomers) [Example 95, (3RS)-3-{6-[4-(2-{4-[(6-{4-[(2-fluorophenyl)amino]-3-(propan-2-yl)-3H-imidazo[4,5-c]pyridin-6-yl}-2-oxo-1-[(1S,3S)-3-(piperidin-1-yl)cyclobutyl]-1,2-dihydrospiro[indole-3,4′-piperidin]-1′-yl)carbonyl]piperidin-1-yl}-2-oxoethyl)piperazin-1-yl]pyridin-3-yl}piperidine-2,6-dione]
